{
  "source": "patent US9487818B2",
  "about": "“TOP2A inhibition by temozolomide and its predictive value of GBM patients survival” (COUNCIL OF SCIENTIFIC & INDUSTRIAL RESEARCH, priority 2010, dated 2016)",
  "key": {"GBM patients": {"tested_on": "GBM patients", "assay": "Prospective cohort of GBM patients, survival (Kaplan Meier analysis)", "format": "in vivo, human", "settings": "for median survival: radiotherapy with temozolomide", "method": "Kaplan-Meier survival estimates for 102 GBM patients are calculated for TOP2A transcript levels. Survival curves for the groups positive (log 2 ratio≧9.25; n=34) and negative (log 2 ratio<9.25; n=68) for TOP2A in univariate analysis.\nNewly diagnosed glioblastoma patients (n=102) who underwent surgery in the two clinical centers (NIMHANS/SSIHMS) were prospectively included. Approval by the ethics committee and patient consent were obtained prior to initiation of the study. The patients were recruited based on the following inclusion criteria: 1) Adult patients (age between 18 to 65 years) with a supratentorial lobar tumor 2) Patients who underwent maximal safe resection of the tumor with minimal residue noted on post operative MRI scan 3) Patients with post operative Karnofsky's Performance Score (KPS)≧70.\nAll patients underwent maximal safe resection of the tumor. All patients underwent uniform adjuvant therapy consisting of radiotherapy, administered with a total dose of 59.4 Gy, given in 33 fractions, along with concomitant chemotherapy with temozolamide, administered at the dose of 100 mg/day which was continued daily for 45 days. Subsequently, five cycles of cyclical chemotherapy with temozolamide at the dose of 150 mg/sq. m body surface area for 5 days every 28 days was administered. The patients were followed up clinically and with MR imaging. The maximum follow up period was 34 months.\nA cohort of 102 patients of GBM were prospectively recruited and managed by standard treatment protocol (as explained in methods). […] In this cohort, as expected, age was an important predictor of poor outcome as noted by Cox regression analysis (p=0.037; HR=1.023; B=0.022). […] The effect of TOP2A transcript level and age on survival was further evaluated by Cox proportional hazard model to elicit the independent effect of TOP2A on survival. It was noted that both age (p=0.033; HR=1.023; B=0.023) and TOP2A transcript level (p=0.035; HR=0.888; B=−0.119) were significant predictors by multivariate analysis. […]"}, "U251 glioma cells": {"tested_on": "U251 glioma cells", "assay": "Cell viability (MTT) assay in U251 cells transfected with TOP2A or cyclophilin siRNA", "format": "cell-based", "settings": "MTT assay after 48 hrs", "method": "At test for difference in the % viability of the control and TOP2A siRNA treated cells was estimated and the p values are shown: 2, 4, 8 and 16 μg/mL; p=0.0297, 0.0336, <0.0001 and 0.042 respectively.\nThe experiment was carried out as in “D” but the cells were treated with temozolomide. At test for difference in the % viability of the control and TOP2A siRNA treated cells was estimated and the p values are shown: 250, 500, 1000 and 2000 μM; p=0.0668, 0.0097, 0.0687 and 0.0134 respectively.\nU373, U138, LN18, LN229, U343, U87, K562, U251 and SVG cells were cultured in DMEM respectively with 10% Fetal bovine serum, penicillin and streptomycin at 37° C. in a humidified atmosphere with 5% CO2. The human TOP2A and cyclophilin siRNA duplexes were designed and chemically synthesized by Dharmacon Research (Lafayette, Colo.). The SMARTpool siRNA is a mixture of four different siRNA duplexes targeting distinct coding region sequences of TOP2A (Genbank™ accession number NM_001067). […]\nFor chemosensitivity assays, 24 hours after plating, the cells were treated with the cytotoxic drugs and incubated at 37° C., 5% CO2 for 45 hours. […] Three hours after MTT addition, the formazan crystals were dissolved in DMSO (200 μl) and measured as absorbance at 550 nm. The absorbance by the control cells was considered to be 100% and all samples were normalized to the control cells. […]"}},
  "data": [
    {"smiles": "Cn1nnc2c(C(N)=O)ncn2c1=O", "note": "[temozolomide]", "values": [
      {"measurement": "median overall survival", "setting": "GBM patients; 102 GBM patients, resection, radiotherapy with concomitant and cyclical adjuvant temozolomide", "result": 16, "unit": "months"},
      {"measurement": "median survival", "setting": "GBM patients; patients with TOP2A mRNA levels <9.25 log 2 ratio", "result": 13, "unit": "months"},
      {"measurement": "median survival", "setting": "GBM patients; patients with TOP2A mRNA levels ≧9.25 log 2 ratio", "result": 22, "unit": "months"}
    ]},
    {"smiles": "COc1cc([C@@H]2c3cc4c(cc3[C@@H](O[C@@H]3O[C@@H]5CO[C@@H](C)O[C@H]5[C@H](O)[C@H]3O)[C@H]3COC(=O)[C@H]23)OCO4)cc(OC)c1O", "note": "[etoposide]", "values": [
      {"measurement": "sensitivity of TOP2A siRNA transfected cells in comparison to cyclophilin siRNA transfected cells", "setting": "U251 glioma cells", "result": "less efficiently"}
    ]}
  ]
}
